{"source": "patent US6829540B1", "about": "“Drug discovery using multiple membrane mimetic affinities” (priority 1997, dated 2004)", "key": {"[1]": {"test": "HPLC membrane binding on immobilized artificial membrane IAM.PS", "assay_type": "physicochemical", "settings": "for Membrane affinity IAM.PS: Ln weighted, Table 3; for Membrane binding properties IAM.PS: Table 1", "experimental": "(§1) The analysis is made by pattern matching membrane binding constants measured on immobilized artificial membrane columns in a high performance liquid chromatography system. Two or more immobilized artificial membrane chromatographic columns are used. Each test compound is injected and chromatographed on each column and the peak width and the peak time of the test compound is recorded and normalized to an internal or external standard. Thus experimentally measured selectivity values (αk′=k′/k′ standard) and normalized standard deviations (αsd=σ/σstandard) were calculated for both the test compounds and compounds of known biological properties. Pattern matching using vector calculus, multivariate analysis or principal component analysis of the αk′ and αsd values of the test compound and the control compounds allows comparison of the membrane binding properties of the test compounds and each of the control compounds or, if the control compounds all have a common biological activity/property, average or mean membrane binding values of the set of control compounds for each membrane surface.\n(§2) Membrane binding constants (k′ values) are calculated in accordance with the formula k′=(tr−t0)/t0 wherein tr is the retention time and t0 is the dead time obtained from each injection; however, t0 in the denominator was obtained by averaging the experimentally determined t0 from all injections for each day the data are collected.\n(§3) The use of chromatography on immobilized artificial membranes provides data characteristic of both equilibrium binding to the respective membrane mimetic surface (k′ values) and the kinetics of mass transfer between the immobilized artificial membrane surface and the mobile phase (i.e. δ values). […] This unavoidable variation in the experimentally determined k′ and δ values for each test compound and each control compound is eliminated, for pattern matching purposes, by normalizing k′ and δ values to an internal or external standard compound chromatographed on each immobilized artificial membrane column. Thus k′ and δ values for the test compounds are each divided by the respective k′ and δ values of the standard to calculate αk′ and αsd, the selectivity values and normalized standard deviations, respectively. For k′ values, α denotes the selectivity of the immobilized artificial membrane chromatographic surface for molecular recognition of the analyte; α is a thermodynamic property and corresponds to a ratio of membrane partition coefficients.\n(§4) Thus, in one embodiment of this invention the membrane binding properties of six hallucinogens were measured on immobilized artificial membranes (IAMs) prepared from phosphatidylcholine (IAM.PC), phosphatidylserine (IAM.PS), phosphatidylethanolamine (IAM.PE), and sphingomyelin (IAM.SM). Mean vectors were calculated for several therapeutic classes of compounds. The calculated mean vector (i.e., the average vector representing a group of compounds with similar biological activity) is shown in Table 1 for hallucinogenic compounds.\n(§5) In one embodiment of this invention membrane binding constants are measured by injecting the drugs into high performance liquid chromatographs (HPLC) using immobilized artificial membrane (IAM) columns using the following IAM stationary phases:\n(§6) ^esterIAM.PC^C10/C3, ^esterIAM.PE^C10/C3, ^esterIAM.PS^C10/C3, and ^esterIAM.SM^C10/C3\n(§7) The peak position of the drug in the chromatogram is a measure of the affinity of the compound for the immobilized membrane surface. The retention time (peak time) was used to calculate the capacity factor, k′, of the compound for the IAM surface. Capacity factors are proportional to equilibrium membrane binding constants K according to\n(§8) Membrane binding data (numerical values relating to interaction with membranes or membrane mimetic surfaces) were obtained using HPLC chromatography on a multiplicity of membrane mimetic surfaces, preferably immobilized artificial membranes (IAMs). […]"}, "[2]": {"test": "HPLC membrane binding on immobilized artificial membrane IAM.SM", "assay_type": "physicochemical", "settings": "for Membrane affinity IAM.SM: Ln weighted, Table 3; for Membrane binding properties IAM.SM: Table 1", "experimental": "as §1, §2, §3, §4, §5, §6, §7, §8"}, "[3]": {"test": "HPLC membrane binding on immobilized artificial membrane IAM.PE", "assay_type": "physicochemical", "settings": "for Membrane affinity IAM.PE: Ln weighted, Table 3; for Membrane binding properties IAM.PE: Table 1", "experimental": "as §1, §2, §3, §4, §5, §6, §7, §8"}, "[4]": {"test": "HPLC membrane binding on immobilized artificial membrane IAM.PC", "assay_type": "physicochemical", "settings": "for Membrane affinity IAM.PC: Ln weighted, Table 3; for Membrane binding properties IAM.PC: Table 1", "experimental": "as §1, §2, §3, §4, §5, §6, §7, §8"}, "[5]": {"settings": "cited from earlier work"}, "[6]": {"settings": "Table 6, low oral absorption training set"}, "[7]": {"settings": "Table 9, compounds with low oral absorption"}, "[8]": {"settings": "Table 7, compounds completely absorbed"}, "[9]": {"settings": "Table 8, high oral absorption training set"}}, "note": "Where two headings read alike, the source gives them in different places."}
{"smiles": "COc1cc(CC(C)N)c(OC)cc1Br", "note": "(stereo not drawn) [2,5-dimethoxy-4-bromoamphetamine]", "values": [{"measurement": "Membrane affinity IAM.PS", "setting": "[1]", "value": 4.68}, {"measurement": "Membrane binding properties IAM.PS", "setting": "[1]", "value": 143.400}, {"measurement": "Membrane affinity IAM.SM", "setting": "[2]", "value": 1.62}, {"measurement": "Membrane binding properties IAM.SM", "setting": "[2]", "value": 20.970}, {"measurement": "Membrane affinity IAM.PE", "setting": "[3]", "value": 3.22}, {"measurement": "Membrane binding properties IAM.PE", "setting": "[3]", "value": 20.950}, {"measurement": "Membrane affinity IAM.PC", "setting": "[4]", "value": 2.07}, {"measurement": "Membrane binding properties IAM.PC", "setting": "[4]", "value": 15.260}]}
{"smiles": "COc1cc(C[C@@H](C)N)c(OC)cc1I", "note": "[(R)-2,5-dimethoxy-4-iodoamphetamine]", "values": [{"measurement": "Membrane binding properties IAM.PS", "setting": "[1]", "value": 260.200}, {"measurement": "Membrane binding properties IAM.SM", "setting": "[2]", "value": 53.41}, {"measurement": "Membrane binding properties IAM.PE", "setting": "[3]", "value": 29.76}, {"measurement": "Membrane binding properties IAM.PC", "setting": "[4]", "value": 55.53}]}
{"smiles": "COc1cc(CC(C)N)c(OC)cc1I", "note": "(stereo not drawn) [DOI]", "values": [{"measurement": "Membrane affinity IAM.PS", "setting": "[1]", "value": 6.13}, {"measurement": "Membrane affinity IAM.SM", "setting": "[2]", "value": 2.14}, {"measurement": "Membrane affinity IAM.PE", "setting": "[3]", "value": 3.73}, {"measurement": "Membrane affinity IAM.PC", "setting": "[4]", "value": 2.61}]}
{"smiles": "CC(N)Cc1ccc2c(c1)OCO2", "note": "(stereo not drawn) [MDA, 3,4-methylendioxyamphetamine]", "values": [{"measurement": "Membrane affinity IAM.PS", "setting": "[1]", "value": 3.28}, {"measurement": "Membrane affinity IAM.SM", "setting": "[2]", "value": "−0.0647"}, {"measurement": "Membrane affinity IAM.PE", "setting": "[3]", "value": 1.32}, {"measurement": "Membrane affinity IAM.PC", "setting": "[4]", "value": 0.298}]}
{"smiles": "CCCC(=O)Nc1ccc(OCC(O)CNC(C)C)c(C(C)=O)c1", "note": "(stereo not drawn) [acebutolol]", "values": [{"measurement": "Oral Absorption (%)", "setting": "[5]; [6]", "value": 37, "unit": "%"}, {"measurement": "Oral Absorption (%)", "setting": "[5]; [7]", "value": 37, "unit": "%"}]}
{"smiles": "C=CCc1ccccc1OCC(O)CNC(C)C", "note": "(stereo not drawn) [alprenolol]", "values": [{"measurement": "Oral Absorption (%)", "setting": "[5]; [8]", "value": 96, "unit": "%"}, {"measurement": "Oral Absorption (%)", "setting": "[5]; [9]", "value": 96, "unit": "%"}]}
{"smiles": "CNC1=Nc2ccc(Cl)cc2C(c2ccccc2)=[N+]([O-])C1", "note": "[chlorodiazepoxide, chlordiazepoxide]", "values": [{"measurement": "Oral Absorption (%)", "setting": "[5]; [8]", "value": 100, "unit": "%"}, {"measurement": "Oral Absorption (%)", "setting": "[5]; [9]", "value": 100, "unit": "%"}]}
{"smiles": "CCOC(=O)C(C)(C)Oc1ccc(Cl)cc1", "note": "[clofibrate]", "values": [{"measurement": "Oral Absorption (%)", "setting": "[5]; [8]", "value": 95, "unit": "%"}, {"measurement": "Oral Absorption (%)", "setting": "[5]; [9]", "value": 95, "unit": "%"}]}
{"smiles": "O=C1CN=C(c2ccccc2Cl)c2cc([N+](=O)[O-])ccc2N1", "note": "[clonazepam]", "values": [{"measurement": "Oral Absorption (%)", "setting": "[5]; [8]", "value": 98, "unit": "%"}, {"measurement": "Oral Absorption (%)", "setting": "[5]; [9]", "value": 98, "unit": "%"}]}
{"smiles": "Clc1cccc(Cl)c1N=C1NCCN1", "note": "[clonidine]", "values": [{"measurement": "Oral Absorption (%)", "setting": "[5]; [8]", "value": 95, "unit": "%"}, {"measurement": "Oral Absorption (%)", "setting": "[5]; [9]", "value": 95, "unit": "%"}]}
{"smiles": "C[C@]12C[C@H](O)[C@H]3[C@@H](CCC4=CC(=O)CC[C@@]43C)[C@@H]1CC[C@@H]2C(=O)CO", "note": "[corticosterone]", "values": [{"measurement": "Oral Absorption (%)", "setting": "[5]; [8]", "value": 100, "unit": "%"}, {"measurement": "Oral Absorption (%)", "setting": "[5]; [9]", "value": 100, "unit": "%"}]}
{"smiles": "COc1cc([C@@H]2c3cc4c(cc3[C@@H](O[C@@H]3O[C@@H]5CO[C@@H](C)O[C@H]5[C@H](O)[C@H]3O)[C@H]3COC(=O)[C@H]23)OCO4)cc(OC)c1O", "note": "[etoposide]", "values": [{"measurement": "Oral Absorption (%)", "setting": "[5]; [6]", "value": 50, "unit": "%"}, {"measurement": "Oral Absorption (%)", "setting": "[5]; [7]", "value": 50, "unit": "%"}]}
{"smiles": "CNC1(c2ccccc2Cl)CCCCC1=O", "note": "(stereo not drawn) [ketamine]", "values": [{"measurement": "Oral Absorption (%)", "setting": "[5]; [6]", "value": 20, "unit": "%"}, {"measurement": "Oral Absorption (%)", "setting": "[5]; [7]", "value": 20, "unit": "%"}]}
{"smiles": "COc1cc(CCN)cc(OC)c1OC", "note": "[mescaline]", "values": [{"measurement": "Membrane affinity IAM.PS", "setting": "[1]", "value": 2.43}, {"measurement": "Membrane binding properties IAM.PS", "setting": "[1]", "value": 12.280}, {"measurement": "Membrane affinity IAM.SM", "setting": "[2]", "value": "−0.715"}, {"measurement": "Membrane binding properties IAM.SM", "setting": "[2]", "value": 2.074}, {"measurement": "Membrane affinity IAM.PE", "setting": "[3]", "value": 0.670}, {"measurement": "Membrane binding properties IAM.PE", "setting": "[3]", "value": 2.134}, {"measurement": "Membrane affinity IAM.PC", "setting": "[4]", "value": "−0.477"}, {"measurement": "Membrane binding properties IAM.PC", "setting": "[4]", "value": 1.476}]}
{"smiles": "COc1cc(CCNC(C)=O)cc(OC)c1OC", "note": "[n-acetylmescaline]", "values": [{"measurement": "Membrane binding properties IAM.PS", "setting": "[1]", "value": 0.736}, {"measurement": "Membrane binding properties IAM.SM", "setting": "[2]", "value": 1.051}, {"measurement": "Membrane binding properties IAM.PE", "setting": "[3]", "value": 1.323}, {"measurement": "Membrane binding properties IAM.PC", "setting": "[4]", "value": 0.706}]}
{"smiles": "CC(N)Cc1ccc(I)cc1", "note": "(stereo not drawn) [p-iodoamphetamine]", "values": [{"measurement": "Membrane binding properties IAM.PS", "setting": "[1]", "value": 258.100}, {"measurement": "Membrane binding properties IAM.SM", "setting": "[2]", "value": 32.410}, {"measurement": "Membrane binding properties IAM.PE", "setting": "[3]", "value": 33.660}, {"measurement": "Membrane binding properties IAM.PC", "setting": "[4]", "value": 24.880}]}
{"smiles": "CCC1(c2ccccc2)C(=O)NC(=O)NC1=O", "note": "[phenobarbital]", "values": [{"measurement": "Oral Absorption (%)", "setting": "[5]; [8]", "value": 100, "unit": "%"}, {"measurement": "Oral Absorption (%)", "setting": "[5]; [9]", "value": 100, "unit": "%"}]}
{"smiles": "O=C1NC(=O)C(c2ccccc2)(c2ccccc2)N1", "note": "[phenytoin]", "values": [{"measurement": "Oral Absorption (%)", "setting": "[5]; [8]", "value": 100, "unit": "%"}, {"measurement": "Oral Absorption (%)", "setting": "[5]; [9]", "value": 100, "unit": "%"}]}
{"smiles": "CN(C)CCc1c[nH]c2cccc(O)c12", "note": "[psilocin]", "values": [{"measurement": "Membrane affinity IAM.PS", "setting": "[1]", "value": 2.80}, {"measurement": "Membrane binding properties IAM.PS", "setting": "[1]", "value": 4.941}, {"measurement": "Membrane affinity IAM.SM", "setting": "[2]", "value": 0.502}, {"measurement": "Membrane binding properties IAM.SM", "setting": "[2]", "value": 7.532}, {"measurement": "Membrane affinity IAM.PE", "setting": "[3]", "value": 1.79}, {"measurement": "Membrane binding properties IAM.PE", "setting": "[3]", "value": 4.818}, {"measurement": "Membrane affinity IAM.PC", "setting": "[4]", "value": 0.900}, {"measurement": "Membrane binding properties IAM.PC", "setting": "[4]", "value": 4.656}]}
{"smiles": "CNC(=C[N+](=O)[O-])NCCSCc1ccc(CN(C)C)o1", "note": "[ranitidie, ranitidine]", "values": [{"measurement": "Oral Absorption (%)", "setting": "[5]; [6]", "value": 50, "unit": "%"}, {"measurement": "Oral Absorption (%)", "setting": "[5]; [7]", "value": 50, "unit": "%"}]}
{"smiles": "CCN1CCCC1CNC(=O)c1cc(S(N)(=O)=O)ccc1OC", "note": "(stereo not drawn) [sulpiride]", "values": [{"measurement": "Oral Absorption (%)", "setting": "[5]; in vivo, po", "value": 36, "unit": "%"}]}
